The results in this text go back to patent US4459293A, “Method of modulating the complement system by administering bis-[β-D-glucopyranosyl-1-thio (or sulfinyl or sulfonyl)]-aryline sulfate derivatives and the cation salts thereof” (American Cyanamid Company, priority 1983, dated 1984).

Structures can show the parent of a compound that is named as a salt.

The subject of test [1] is late components of human complement (C3-C9). Description: Test Code 035 (C3-C9 inhibitor): protection of EAC 142 from lysis by late components of human complement. The class given is biochemical. Conditions: activity in wells, twofold serial dilutions; higher well number indicates higher activity. Here is the method:
(§1) An active inhibitor protects C2 from C1 and C4; (ii) Test Code 035 (C3-C9 inhibitor)--This test determines the ability of the late components of human complement (C3-C9) to lyse EAC 142 in the presence of appropriate dilutions of the test compound. An active inhibitor protects EAC 142 from lysis by human C3-C9; and (iii) Cap 50 Test--Here, appropriate amounts of the test compound are added to a pool of guinea pig serum in vitro, after which the undiluted serum capillary tube assay of U.S. Pat. No. 3,876,376 is run. The concentration of compound inhibiting 50% is reported.
(§2) **Activity in wells, a serial dilution assay; higher well number indicate
(§3) higher activitiy. The serial dilutions are twofold.

The target of test [2] is T1, activated human C1 (Homo sapiens, UniProt P09871).
T1 construct: fluid-phase C2 destruction in presence of C4
T1 sequence (P09871 16-688): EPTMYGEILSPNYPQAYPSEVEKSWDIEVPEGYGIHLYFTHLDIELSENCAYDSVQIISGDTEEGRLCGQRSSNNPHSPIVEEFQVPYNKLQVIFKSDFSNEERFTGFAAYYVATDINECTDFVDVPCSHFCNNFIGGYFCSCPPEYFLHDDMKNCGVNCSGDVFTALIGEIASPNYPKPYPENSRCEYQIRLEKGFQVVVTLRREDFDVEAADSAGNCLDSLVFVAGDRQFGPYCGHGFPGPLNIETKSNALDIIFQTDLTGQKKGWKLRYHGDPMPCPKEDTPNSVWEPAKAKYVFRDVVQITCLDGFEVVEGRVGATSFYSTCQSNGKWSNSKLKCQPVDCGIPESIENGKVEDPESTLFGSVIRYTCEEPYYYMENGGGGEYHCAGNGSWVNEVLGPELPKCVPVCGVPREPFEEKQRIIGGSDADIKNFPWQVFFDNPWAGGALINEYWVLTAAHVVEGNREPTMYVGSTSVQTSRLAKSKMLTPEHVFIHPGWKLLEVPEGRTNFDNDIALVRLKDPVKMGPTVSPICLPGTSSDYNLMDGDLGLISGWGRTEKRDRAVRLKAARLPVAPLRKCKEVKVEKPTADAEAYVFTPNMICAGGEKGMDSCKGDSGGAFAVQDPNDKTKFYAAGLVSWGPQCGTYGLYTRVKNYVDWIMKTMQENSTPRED
T1 sequence (P00736 18-705 partner): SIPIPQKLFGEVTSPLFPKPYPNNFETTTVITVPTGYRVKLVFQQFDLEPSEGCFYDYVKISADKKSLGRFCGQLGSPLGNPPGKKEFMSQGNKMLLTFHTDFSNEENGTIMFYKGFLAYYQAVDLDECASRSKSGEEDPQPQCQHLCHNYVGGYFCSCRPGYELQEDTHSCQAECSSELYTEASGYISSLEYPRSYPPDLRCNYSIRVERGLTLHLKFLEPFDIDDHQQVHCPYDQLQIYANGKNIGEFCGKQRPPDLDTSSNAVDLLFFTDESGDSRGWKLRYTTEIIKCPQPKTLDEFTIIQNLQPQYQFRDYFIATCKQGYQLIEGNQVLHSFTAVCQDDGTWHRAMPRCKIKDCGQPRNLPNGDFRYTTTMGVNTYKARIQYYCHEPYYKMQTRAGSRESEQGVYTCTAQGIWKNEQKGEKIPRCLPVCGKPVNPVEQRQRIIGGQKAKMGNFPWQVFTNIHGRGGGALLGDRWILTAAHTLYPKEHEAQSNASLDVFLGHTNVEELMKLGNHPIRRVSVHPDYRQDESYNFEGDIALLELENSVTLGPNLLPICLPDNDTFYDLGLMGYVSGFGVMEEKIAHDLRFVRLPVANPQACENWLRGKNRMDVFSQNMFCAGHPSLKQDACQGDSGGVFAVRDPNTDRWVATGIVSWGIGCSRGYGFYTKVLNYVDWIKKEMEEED
T1 sequence (P02745 23-245 partner): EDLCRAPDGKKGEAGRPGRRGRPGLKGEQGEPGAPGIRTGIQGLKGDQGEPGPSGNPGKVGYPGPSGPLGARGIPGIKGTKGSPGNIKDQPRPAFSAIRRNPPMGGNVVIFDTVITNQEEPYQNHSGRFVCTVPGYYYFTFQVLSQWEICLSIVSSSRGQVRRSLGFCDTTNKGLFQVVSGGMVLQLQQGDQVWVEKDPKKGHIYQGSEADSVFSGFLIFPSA
T1 sequence (P02746 28-253 partner): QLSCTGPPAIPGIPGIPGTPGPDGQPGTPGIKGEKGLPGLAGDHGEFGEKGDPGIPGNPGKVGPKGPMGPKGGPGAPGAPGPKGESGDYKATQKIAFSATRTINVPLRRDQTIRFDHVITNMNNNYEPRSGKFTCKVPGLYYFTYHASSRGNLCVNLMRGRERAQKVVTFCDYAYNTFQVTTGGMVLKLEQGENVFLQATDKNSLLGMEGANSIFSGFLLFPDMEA
T1 sequence (P02747 29-245 partner): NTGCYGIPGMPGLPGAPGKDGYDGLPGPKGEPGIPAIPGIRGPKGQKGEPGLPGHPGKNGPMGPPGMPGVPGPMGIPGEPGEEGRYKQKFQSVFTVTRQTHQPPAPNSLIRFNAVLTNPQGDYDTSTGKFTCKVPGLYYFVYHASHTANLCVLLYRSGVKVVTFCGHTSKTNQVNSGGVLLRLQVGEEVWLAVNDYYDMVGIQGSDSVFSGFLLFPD
In words: Test Code 026 (C1 inhibitor): protection of fluid phase human C2 from activated human C1 in the presence of C4, serial dilution assay. The class given is biochemical. As to conditions: activity in wells, twofold serial dilutions; higher well number indicates higher activity. Here is the method: as §1, §2, §3

With `CC(=O)N[C@@H]1[C@@H](OS(=O)(=O)O)[C@H](OS(=O)(=O)O)[C@@H](COS(=O)(=O)O)O[C@H]1Sc1cccc(S[C@@H]2O[C@H](COS(=O)(=O)O)[C@@H](OS(=O)(=O)O)[C@H](OS(=O)(=O)O)[C@H]2NC(C)=O)c1` [1,3-Bis-[β-D-(2-acetylamino)-glucopyranosyl-1-thio]-phenylene, hexakis(H-sulfate), hexasodium salt], the “C-Late 035 Wells” value in test [1] was found to be 1 Wells. In addition, the “Cl 026 Wells” value in test [2] is on record as 5 Wells.

`O=C(O)[C@H]1O[C@@H](Sc2cccc(S[C@@H]3O[C@H](C(=O)O)[C@@H](OS(=O)(=O)O)[C@H](OS(=O)(=O)O)[C@H]3OS(=O)(=O)O)c2)[C@H](OS(=O)(=O)O)[C@@H](OS(=O)(=O)O)[C@@H]1OS(=O)(=O)O` [1,3-Bis[β-D-glucopyranosiduronic acid-1-thio]-phenylene, hexakis(H-sulfate), octasodium salt]: the “Cl 026 Wells” value in test [2] is reported as 5 Wells.

As to `O=S(=O)(O)OC[C@H]1O[C@@H](Sc2ccc(Oc3ccc(S[C@@H]4O[C@H](COS(=O)(=O)O)[C@@H](OS(=O)(=O)O)[C@H](OS(=O)(=O)O)[C@H]4OS(=O)(=O)O)cc3)cc2)[C@H](OS(=O)(=O)O)[C@@H](OS(=O)(=O)O)[C@@H]1OS(=O)(=O)O` [Oxydi-p-phenylene bis-[1-thio-β-D-glucopyranoside], octakis(H-sulfate), octasodium salt], the “Cl 026 Wells” value in test [2] came to 4 Wells.
